Details: Coaxial cylinder method

CCC [propane]
thermal conductivity [W/m/K]
Details	365.72 K	366.45 K
3595 kPa, Gas	–	0.03694
3610 kPa, Gas	–	0.0371
3880 kPa, Gas	–	0.04193
3882 kPa, Gas	–	0.04198
3908 kPa, Gas	–	0.04282
3915 kPa, Gas	–	0.04316
3920 kPa, Gas	–	0.04339
3925 kPa, Gas	–	0.04359
3930 kPa, Gas	–	0.04383
3935 kPa, Gas	–	0.04406
3937 kPa, Gas	–	0.04421
3949 kPa, Gas	–	0.04486
3950 kPa, Gas	–	0.04487
3951 kPa, Gas	–	0.04497
3952 kPa, Gas	–	0.04502
3953 kPa, Gas	–	0.04507
3954 kPa, Gas	–	0.04513
3955 kPa, Gas	–	0.04847
3956 kPa, Gas	–	0.0498
3957 kPa, Gas	–	0.0512
3958 kPa, Gas	–	0.05294
3959 kPa, Gas	–	0.05452
3960 kPa, Gas	–	0.05651
3961 kPa, Gas	–	0.05848
3962 kPa, Gas	–	0.06058
3963 kPa, Gas	–	0.06307
3964 kPa, Gas	–	0.06573
3965 kPa, Gas	–	0.06816
3966 kPa, Gas	–	0.07114
3967 kPa, Gas	–	0.07411
3968 kPa, Gas	–	0.07748
3969 kPa, Gas	–	0.08195
3970 kPa, Gas	–	0.08706
3971 kPa, Gas	–	0.09339
3972 kPa, Gas	–	0.09783
3973 kPa, Gas	–	0.1017
3974 kPa, Gas	–	0.108
3975 kPa, Gas	–	0.114
3976 kPa, Gas	–	0.1185
3977 kPa, Gas	–	0.1239
3978 kPa, Gas	–	0.1288
3978 kPa, Liquid	0.08613	–
3979 kPa, Gas	–	0.1341
3979 kPa, Liquid	0.08495	–
3980 kPa, Gas	–	0.1393
3980 kPa, Liquid	0.08381	–
3981 kPa, Gas	–	0.1449
3982 kPa, Gas	–	0.1502
3983 kPa, Gas	–	0.1559
3984 kPa, Gas	–	0.1614
3985 kPa, Gas	–	0.1661
3985 kPa, Liquid	0.07882	–
3986 kPa, Gas	–	0.1732
3987 kPa, Gas	–	0.1794
3988 kPa, Gas	–	0.1853
3989 kPa, Gas	–	0.1916
3990 kPa, Gas	–	0.1977
3990 kPa, Liquid	0.07478	–
3991 kPa, Gas	–	0.2045
3992 kPa, Gas	–	0.2108
3993 kPa, Gas	–	0.2174
3994 kPa, Gas	–	0.224
3995 kPa, Gas	–	0.2309
3995 kPa, Liquid	0.07164	–
3996 kPa, Gas	–	0.2389
3997 kPa, Liquid	–	0.2535
3998 kPa, Liquid	–	0.2389
3999 kPa, Liquid	–	0.2261
4000 kPa, Liquid	0.06921	0.2153
4001 kPa, Liquid	–	0.2051
4002 kPa, Liquid	–	0.196
4003 kPa, Liquid	–	0.1879
4004 kPa, Liquid	–	0.1801
4005 kPa, Liquid	–	0.1734
4006 kPa, Liquid	–	0.1669
4007 kPa, Liquid	–	0.1612
4008 kPa, Liquid	–	0.1563
4009 kPa, Liquid	–	0.1513
4010 kPa, Liquid	0.066	0.1467
4011 kPa, Liquid	–	0.1425
4012 kPa, Liquid	–	0.1387
4014 kPa, Liquid	0.06521	–
4020 kPa, Liquid	0.06438	–
4025 kPa, Liquid	0.06418	–
4030 kPa, Liquid	0.06394	–
4035 kPa, Liquid	0.06394	–
4040 kPa, Liquid	0.06389	–
4045 kPa, Liquid	0.06389	–
4050 kPa, Liquid	0.06389	–
4055 kPa, Liquid	0.06385	–
4060 kPa, Liquid	0.06385	–
4080 kPa, Liquid	0.06377	–
4100 kPa, Liquid	0.06375	–
4120 kPa, Liquid	0.06375	–
4140 kPa, Liquid	0.06377	–
4160 kPa, Liquid	0.06377	–
4180 kPa, Liquid	0.06377	–
4200 kPa, Liquid	0.06381	–
4250 kPa, Liquid	0.06392	–
4275 kPa, Liquid	0.06396	–
4350 kPa, Liquid	0.06412	–
4400 kPa, Liquid	0.06428	–
4450 kPa, Liquid	0.06442	–
4500 kPa, Liquid	0.06459	–
4560 kPa, Liquid	0.06484	–
4580 kPa, Liquid	0.0649	–
4670 kPa, Liquid	0.06519	–
4690 kPa, Liquid	0.06519	–

Reference: the NIST ThermoML archive (doi:10.1016/j.fluid.2017.06.019)
